Experimental data as given in patent publication US20230242585A1, “IMMUNOMODULATORS” (Bristol-Myers Squibb Company, priority 2020, published 2023).
Starred links: 1 amine or outer side, 2 acyl side, 3 side chain; linkers in the order of their positions; H or OH if unused. Positions of bridges follow the written chain, without caps; N, C: chain ends. Non-standard residues stand in square brackets, D forms with d. Residues, ends and D or L forms follow the SMILES beside them. X28 = O=C([C@H](CCNC[C@H](O)[C@@H](O)[C@H](O[C@@H]1O[C@H](CO)[C@H](O)[C@H](O)[C@H]1O)[C@H](O)CO)N[*:1])[*:2]; X27 = O=C([C@H](CNC[C@H](O)[C@@H](O)[C@H](O[C@@H]1O[C@H](CO)[C@H](O)[C@H](O)[C@H]1O)[C@H](O)CO)N[*:1])[*:2]; X29 = O=C([C@H](CNC[C@H](O)[C@@H](O)[C@H](O[C@H]1O[C@H](CO)[C@@H](O)[C@H](O)[C@H]1O)[C@H](O)CO)N[*:1])[*:2]; X48 = O=C([C@H](CCNCc1ccccc1O[C@@H]1O[C@H](CO)[C@@H](O)[C@H](O)[C@H]1O)N[*:1])[*:2]; X47 = O=C([C@H](CNCc1ccccc1O[C@@H]1O[C@H](CO)[C@@H](O)[C@H](O)[C@H]1O)N[*:1])[*:2]; X40 = O=C([C@H](CNC1[C@@H](O)[C@@H](O)[C@@H](O)[C@H](O)[C@H]1O)N[*:1])[*:2]; X63 = O=C([C@H](CCNC[C@H](O)[C@@H](O)[C@@H](O)[C@H](O)CO)N[*:1])[*:2]; X11 = O=C([C@H](CNC[C@H](O)[C@@H](O)[C@@H](O)[C@H](O)CO)N[*:1])[*:2]; X7 = O=C([C@H](CNC[C@H](O)[C@H](O)[C@H](O)CO)N[*:1])[*:2]; Trp(1-CH2COOH) = N[C@@H](Cc1cn(CC(=O)O)c2ccccc12)C(=O)O; X65 = O=C([C@H](CCNCc1ccccc1-c1ccc(Cl)cc1)N[*:1])[*:2]; X64 = O=C([C@H](CNCc1ccccc1-c1ccc(Cl)cc1)N[*:1])[*:2]; X14 = O=C([C@H](CCNCc1cccc2[nH]ccc12)N[*:1])[*:2]; X13 = O=C([C@H](CNCc1cccc2[nH]ccc12)N[*:1])[*:2]; Hyp = O=C(O)[C@@H]1C[C@@H](O)CN1; NMeNle = CCCC[C@H](NC)C(=O)O; NMeA = CN[C@@H](C)C(=O)O; Dab = NCC[C@H](N)C(=O)O

Molecular target: T1, PD-1/PD-L1 (Homo sapiens, UniProt Q9NZQ7)
T1 construct: TVMV protease site (linker) (C); made in house; host or cells: HEK293T cells
Assay: PD-1/PD-L1 Homogenous Time-Resolved Fluorescence (HTRF) binding assay
Conditions: PD-L1-His 10 nM, PD-1-Ig 20 nM
Description: The ability of the compounds of formula (I) to bind to PD-L1 was investigated using a PD-1/PD-L1 Homogenous Time-Resolved Fluorescence (HTRF) binding assay.
The interaction of PD-1 and PD-L1 can be assessed using soluble, purified preparations of the extracellular domains of the two proteins. The PD-1 and PD-L1 protein extracellular domains were expressed as fusion proteins with detection tags, for PD-1, the tag was the Fc portion of Immunoglobulin (PD-1-Ig) and for PD-L1 it was the 6 histidine motif (PD-L1-His). All binding studies were performed in an HTRF assay buffer consisting of dPBS supplemented with 0.1% […] bovine serum albumin and 0.05% (v/v) Tween-20. For the h/PD-L1-His binding assay, inhibitors were pre-incubated with PD-L1-His (10 nM final) for 15 m in 4 µl of assay buffer, followed by addition of PD-1-Ig (20 nM final) in 1 µl of assay buffer and further incubation for 15 m. HTRF detection was achieved using europium crypate-labeled anti-Ig (1 nM final) and allophycocyanin (APC) labeled anti-His (20 nM final). Antibodies were diluted in HTRF detection buffer and 5 µl was dispensed on top of the binding reaction. The reaction mixture was allowed to equilibrate for 30 minutes and the resulting signal (665 nm/620 nm ratio) was obtained using an EnVision fluorometer. Additional binding assays were established between the human proteins PD-1-Ig/PD-L2-His (20 & 5 nM, respectively) and CD80-His/PD-L1-Ig (100 & 10 nM, respectively).
Recombinant Proteins: Human PD-1 (25-167) with a C-terminal human Fc domain of immunoglobulin G (Ig) epitope tag [hPD-1 (25-167)-3S-IG] and human PD-L1 (18-239) with a C-terminal His epitope tag [hPD-L1(18-239)-TVMV-His] were expressed in HEK293T cells and purified sequentially by ProteinA affinity chromatography and size exclusion chromatography. Human PD-L2-His and CD80-His was obtained through commercial sources.
Table 1 lists the IC50 values for representative examples of this disclosure measured in the PD-1/PD-L1 Homogenous Time-Resolved Fluorescence (HTRF) binding assay.

T1 sequence (Q9NZQ7 18-239): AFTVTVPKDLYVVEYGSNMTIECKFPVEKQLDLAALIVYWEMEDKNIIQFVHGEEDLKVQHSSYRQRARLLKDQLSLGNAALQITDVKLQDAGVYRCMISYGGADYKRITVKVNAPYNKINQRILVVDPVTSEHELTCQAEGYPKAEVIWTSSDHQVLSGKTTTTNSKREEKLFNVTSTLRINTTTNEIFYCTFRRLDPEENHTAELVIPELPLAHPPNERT

SMILES	IC50 [nM]
CCCC[C@H]1C(=O)N(C)[C@@H](CCCC)C(=O)N[C@@H](CC(C)C)C(=O)N[C@H](C(=O)NCC(N)=O)CSCC(=O)N[C@@H](Cc2ccc(O)cc2)C(=O)N(C)[C@@H](C)C(=O)N[C@@H](CC(N)=O)C(=O)N2CCC[C@H]2C(=O)N[C@@H](CNC[C@H](O)[C@@H](O)[C@H](O[C@@H]2O[C@H](CO)[C@H](O)[C@H](O)[C@H]2O)[C@H](O)CO)C(=O)N[C@@H](CC(C)C)C(=O)N2C[C@H](O)C[C@H]2C(=O)N[C@@H](Cc2c[nH]c3ccccc23)C(=O)N[C@@H](CCN)C(=O)N[C@@H](Cc2cn(CC(=O)O)c3ccccc23)C(=O)N1C [Example 2013] ({CH2CO}-Y[NMeA]NP[X27]L[Hyp]W[Dab][Trp(1-CH2COOH)][NMeNle][NMeNle]LCG-NH2; thioether N-14)	9.7
CCCC[C@H]1C(=O)N(C)[C@@H](CCCC)C(=O)N[C@@H](CC(C)C)C(=O)N[C@H](C(=O)NCC(N)=O)CSCC(=O)N[C@@H](Cc2ccc(O)cc2)C(=O)N(C)[C@@H](C)C(=O)N[C@@H](CC(N)=O)C(=O)N2CCC[C@H]2C(=O)N[C@@H](CNC2[C@@H](O)[C@@H](O)[C@@H](O)[C@H](O)[C@H]2O)C(=O)N[C@@H](CC(C)C)C(=O)N2C[C@H](O)C[C@H]2C(=O)N[C@@H](Cc2c[nH]c3ccccc23)C(=O)N[C@@H](CCN)C(=O)N[C@@H](Cc2cn(CC(=O)O)c3ccccc23)C(=O)N1C (stereo partly drawn) [Example 2020] ({CH2CO}-Y[NMeA]NP[X40]L[Hyp]W[Dab][Trp(1-CH2COOH)][NMeNle][NMeNle]LCG-NH2; thioether N-14)	5
CCCC[C@H]1C(=O)N(C)[C@@H](CCCC)C(=O)N[C@@H](CC(C)C)C(=O)N[C@H](C(=O)NCC(N)=O)CSCC(=O)N[C@@H](Cc2ccc(O)cc2)C(=O)N(C)[C@@H](C)C(=O)N[C@@H](CC(N)=O)C(=O)N2CCC[C@H]2C(=O)N[C@@H](CNC[C@H](O)[C@@H](O)[C@@H](O)[C@H](O)CO)C(=O)N[C@@H](CC(C)C)C(=O)N2C[C@H](O)C[C@H]2C(=O)N[C@@H](Cc2c[nH]c3ccccc23)C(=O)N[C@@H](CCNC[C@H](O)[C@@H](O)[C@@H](O)[C@H](O)CO)C(=O)N[C@@H](Cc2cn(CC(=O)O)c3ccccc23)C(=O)N1C [Example 2026] ({CH2CO}-Y[NMeA]NP[X11]L[Hyp]W[X63][Trp(1-CH2COOH)][NMeNle][NMeNle]LCG-NH2; thioether N-14)	1.8
CCCC[C@H]1C(=O)N(C)[C@@H](CCCC)C(=O)N[C@@H](CC(C)C)C(=O)N[C@H](C(=O)NCC(N)=O)CSCC(=O)N[C@@H](Cc2ccc(O)cc2)C(=O)N(C)[C@@H](C)C(=O)N[C@@H](CC(N)=O)C(=O)N2CCC[C@H]2C(=O)N[C@@H](CNCc2ccccc2O[C@@H]2O[C@H](CO)[C@@H](O)[C@H](O)[C@H]2O)C(=O)N[C@@H](CC(C)C)C(=O)N2C[C@H](O)C[C@H]2C(=O)N[C@@H](Cc2c[nH]c3ccccc23)C(=O)N[C@@H](CCNCc2ccccc2O[C@@H]2O[C@H](CO)[C@@H](O)[C@H](O)[C@H]2O)C(=O)N[C@@H](Cc2cn(CC(=O)O)c3ccccc23)C(=O)N1C [Example 1006] ({CH2CO}-Y[NMeA]NP[X47]L[Hyp]W[X48][Trp(1-CH2COOH)][NMeNle][NMeNle]LCG-NH2; thioether N-14)	32
CCCC[C@H]1C(=O)N(C)[C@@H](CCCC)C(=O)N[C@@H](CC(C)C)C(=O)N[C@H](C(=O)NCC(N)=O)CSCC(=O)N[C@@H](Cc2ccc(O)cc2)C(=O)N(C)[C@@H](C)C(=O)N[C@@H](CC(N)=O)C(=O)N2CCC[C@H]2C(=O)N[C@@H](CNC[C@H](O)[C@@H](O)[C@H](O[C@@H]2O[C@H](CO)[C@H](O)[C@H](O)[C@H]2O)[C@H](O)CO)C(=O)N[C@@H](CC(C)C)C(=O)N2C[C@H](O)C[C@H]2C(=O)N[C@@H](Cc2c[nH]c3ccccc23)C(=O)N[C@@H](CCNC[C@H](O)[C@@H](O)[C@H](O[C@@H]2O[C@H](CO)[C@H](O)[C@H](O)[C@H]2O)[C@H](O)CO)C(=O)N[C@@H](Cc2cn(CC(=O)O)c3ccccc23)C(=O)N1C [Example 2028] ({CH2CO}-Y[NMeA]NP[X27]L[Hyp]W[X28][Trp(1-CH2COOH)][NMeNle][NMeNle]LCG-NH2; thioether N-14)	4.6
CCCC[C@H]1C(=O)N(C)[C@@H](CCCC)C(=O)N[C@@H](CC(C)C)C(=O)N[C@H](C(=O)NCC(N)=O)CSCC(=O)N[C@@H](Cc2ccc(O)cc2)C(=O)N(C)[C@@H](C)C(=O)N[C@@H](CC(N)=O)C(=O)N2CCC[C@H]2C(=O)N[C@@H](CNCc2cccc3[nH]ccc23)C(=O)N[C@@H](CC(C)C)C(=O)N2C[C@H](O)C[C@H]2C(=O)N[C@@H](Cc2c[nH]c3ccccc23)C(=O)N[C@@H](CCNCc2cccc3[nH]ccc23)C(=O)N[C@@H](Cc2cn(CC(=O)O)c3ccccc23)C(=O)N1C [Example 1008] ({CH2CO}-Y[NMeA]NP[X13]L[Hyp]W[X14][Trp(1-CH2COOH)][NMeNle][NMeNle]LCG-NH2; thioether N-14)	4.9

Results, then the compound that gave them:

IC50 [nM]	SMILES
8.8	CCCC[C@H]1C(=O)N(C)[C@@H](CCCC)C(=O)N[C@@H](CC(C)C)C(=O)N[C@H](C(=O)NCC(N)=O)CSCC(=O)N[C@@H](Cc2ccc(O)cc2)C(=O)N(C)[C@@H](C)C(=O)N[C@@H](CC(N)=O)C(=O)N2CCC[C@H]2C(=O)N[C@@H](CNC[C@H](O)[C@@H](O)[C@H](O[C@H]2O[C@H](CO)[C@@H](O)[C@H](O)[C@H]2O)[C@H](O)CO)C(=O)N[C@@H](CC(C)C)C(=O)N2C[C@H](O)C[C@H]2C(=O)N[C@@H](Cc2c[nH]c3ccccc23)C(=O)N[C@@H](CCN)C(=O)N[C@@H](Cc2cn(CC(=O)O)c3ccccc23)C(=O)N1C [Example 2011] ({CH2CO}-Y[NMeA]NP[X29]L[Hyp]W[Dab][Trp(1-CH2COOH)][NMeNle][NMeNle]LCG-NH2; thioether N-14)
14	CCCC[C@H]1C(=O)N(C)[C@@H](CCCC)C(=O)N[C@@H](CC(C)C)C(=O)N[C@H](C(=O)NCC(N)=O)CSCC(=O)N[C@@H](Cc2ccc(O)cc2)C(=O)N(C)[C@@H](C)C(=O)N[C@@H](CC(N)=O)C(=O)N2CCC[C@H]2C(=O)N[C@@H](CNCc2ccccc2-c2ccc(Cl)cc2)C(=O)N[C@@H](CC(C)C)C(=O)N2C[C@H](O)C[C@H]2C(=O)N[C@@H](Cc2c[nH]c3ccccc23)C(=O)N[C@@H](CCNCc2ccccc2-c2ccc(Cl)cc2)C(=O)N[C@@H](Cc2cn(CC(=O)O)c3ccccc23)C(=O)N1C [Example 1001] ({CH2CO}-Y[NMeA]NP[X64]L[Hyp]W[X65][Trp(1-CH2COOH)][NMeNle][NMeNle]LCG-NH2; thioether N-14)
12	CCCC[C@H]1C(=O)N(C)[C@@H](CCCC)C(=O)N[C@@H](CC(C)C)C(=O)N[C@H](C(=O)NCC(N)=O)CSCC(=O)N[C@@H](Cc2ccc(O)cc2)C(=O)N(C)[C@@H](C)C(=O)N[C@@H](CC(N)=O)C(=O)N2CCC[C@H]2C(=O)N[C@@H](CNC[C@H](O)[C@H](O)[C@H](O)CO)C(=O)N[C@@H](CC(C)C)C(=O)N2C[C@H](O)C[C@H]2C(=O)N[C@@H](Cc2c[nH]c3ccccc23)C(=O)N[C@@H](CCN)C(=O)N[C@@H](Cc2cn(CC(=O)O)c3ccccc23)C(=O)N1C [Example 2006] ({CH2CO}-Y[NMeA]NP[X7]L[Hyp]W[Dab][Trp(1-CH2COOH)][NMeNle][NMeNle]LCG-NH2; thioether N-14)
